The source of these data is the kinase profiling compilation of Christmann-Franck et al. (2016).

Assay in all cases: Free Choice Kinase Assay Projects, Flashplate
One assay concerns the target CSNK2A1 (human) (UniProt P68400). The note with it: compound 10.0 µM; ATP 0.1 µM.
For another assay, the target named is KDR (human) (UniProt P35968). The note with it: compound 10.0 µM; ATP 1 µM.
The next assay deals with TEK (human) (UniProt Q02763). The settings on record: compound 10.0 µM; ATP 1 µM.
A further assay deals with PDGFRB (human) (UniProt P09619). The settings on record: compound 10.0 µM; ATP 0.3 µM.
Another assay deals with PLK4 (human) (UniProt O00444). The note with it: compound 10.0 µM; ATP 0.3 µM.
Another assay concerns the target AKT1 (human) (UniProt P31749). The note with it: compound 10.0 µM; ATP 3 µM.
For a further assay, the target named is AXL (human) (UniProt P30530). The settings on record: compound 10.0 µM; ATP 0.3 µM.
For another assay, the target named is MAPK10 (human) (UniProt P53779). The note with it: compound 10.0 µM; ATP 0.3 µM.
The next assay has as its target MAPK14 (human) (UniProt Q16539). The note with it: compound 10.0 µM; ATP 1 µM.
In another assay the target is SRC (human) (UniProt P12931). The note with it: compound 10.0 µM; ATP 0.3 µM.
A further assay addresses PTK2 (human) (UniProt Q05397). The settings on record: compound 10.0 µM; ATP 1 µM.
For the next assay, the target named is NUAK1 (human) (UniProt O60285). The note with it: compound 10.0 µM; ATP 1 µM.
For another assay, the target named is MAP3K8 (human) (UniProt P41279). The note with it: compound 10.0 µM; ATP 3 µM.
The next assay deals with ERBB2 (human) (UniProt P04626). The settings on record: compound 10.0 µM; ATP 1 µM.
A further assay concerns the target IGF1R (human) (UniProt P08069). The settings on record: compound 10.0 µM; ATP 1 µM.
The target in the next assay is PLK1 (human) (UniProt P53350). The settings on record: compound 10.0 µM; ATP 1 µM.
The target in the next assay is AURKA (human) (UniProt O14965). The note with it: compound 10.0 µM; ATP 10 µM.
A further assay has as its target CDK2 CCNA2 (human) (UniProt P24941+P20248). The settings on record: compound 10.0 µM; ATP 0.3 µM.
In another assay the target is AURKB (human) (UniProt Q96GD4). The note with it: compound 10.0 µM; ATP 10 µM.
In a further assay the target is MET (human) (UniProt P08581). The settings on record: compound 10.0 µM; ATP 0.3 µM.
For the next assay, the target named is CDK4 CCND1 (human) (UniProt P11802+P24385). The settings on record: compound 10.0 µM; ATP 3 µM.
Assay [1] has as its system BRAF (human), P15056 [V600E]. The note with it: compound 10.0 µM; ATP 3 µM.
In the next assay the target is EPHB4 (human) (UniProt P54760). The note with it: compound 10.0 µM; ATP 1 µM.
Another assay has as its target EGFR (human) (UniProt P00533). The note with it: compound 10.0 µM; ATP 0.3 µM.

EGFR (human), sequence (P00533 whole entry, looked up): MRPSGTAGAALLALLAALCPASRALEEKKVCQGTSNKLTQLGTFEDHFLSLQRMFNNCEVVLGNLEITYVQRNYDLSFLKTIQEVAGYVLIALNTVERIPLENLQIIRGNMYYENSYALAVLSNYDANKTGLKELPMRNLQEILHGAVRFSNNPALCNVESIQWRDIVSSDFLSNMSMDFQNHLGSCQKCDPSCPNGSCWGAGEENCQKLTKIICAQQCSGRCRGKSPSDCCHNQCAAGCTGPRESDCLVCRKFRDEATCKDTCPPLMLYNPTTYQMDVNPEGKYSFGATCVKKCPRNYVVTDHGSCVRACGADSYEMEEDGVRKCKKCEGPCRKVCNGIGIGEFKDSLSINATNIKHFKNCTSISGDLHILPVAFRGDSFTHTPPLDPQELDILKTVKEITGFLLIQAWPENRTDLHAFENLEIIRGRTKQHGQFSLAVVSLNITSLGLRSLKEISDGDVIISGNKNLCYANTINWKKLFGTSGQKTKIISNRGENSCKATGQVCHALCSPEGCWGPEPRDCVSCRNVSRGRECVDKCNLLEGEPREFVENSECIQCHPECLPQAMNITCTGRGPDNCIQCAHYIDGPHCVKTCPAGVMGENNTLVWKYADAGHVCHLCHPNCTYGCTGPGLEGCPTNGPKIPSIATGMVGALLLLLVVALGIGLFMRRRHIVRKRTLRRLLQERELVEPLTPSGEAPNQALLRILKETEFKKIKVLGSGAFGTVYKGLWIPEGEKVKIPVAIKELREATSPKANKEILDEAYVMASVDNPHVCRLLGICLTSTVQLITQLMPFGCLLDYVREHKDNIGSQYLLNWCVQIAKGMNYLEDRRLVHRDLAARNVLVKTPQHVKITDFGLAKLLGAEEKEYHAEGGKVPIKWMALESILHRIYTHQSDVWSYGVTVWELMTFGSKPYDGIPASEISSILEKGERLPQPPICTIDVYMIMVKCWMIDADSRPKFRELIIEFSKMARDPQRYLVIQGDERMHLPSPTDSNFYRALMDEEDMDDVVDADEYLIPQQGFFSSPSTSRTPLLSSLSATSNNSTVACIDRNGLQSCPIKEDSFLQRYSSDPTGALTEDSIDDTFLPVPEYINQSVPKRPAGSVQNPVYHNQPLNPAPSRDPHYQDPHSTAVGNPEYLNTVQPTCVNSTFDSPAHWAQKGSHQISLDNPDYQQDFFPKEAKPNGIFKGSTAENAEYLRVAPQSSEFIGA
PLK1 (human), sequence (P53350 whole entry, looked up): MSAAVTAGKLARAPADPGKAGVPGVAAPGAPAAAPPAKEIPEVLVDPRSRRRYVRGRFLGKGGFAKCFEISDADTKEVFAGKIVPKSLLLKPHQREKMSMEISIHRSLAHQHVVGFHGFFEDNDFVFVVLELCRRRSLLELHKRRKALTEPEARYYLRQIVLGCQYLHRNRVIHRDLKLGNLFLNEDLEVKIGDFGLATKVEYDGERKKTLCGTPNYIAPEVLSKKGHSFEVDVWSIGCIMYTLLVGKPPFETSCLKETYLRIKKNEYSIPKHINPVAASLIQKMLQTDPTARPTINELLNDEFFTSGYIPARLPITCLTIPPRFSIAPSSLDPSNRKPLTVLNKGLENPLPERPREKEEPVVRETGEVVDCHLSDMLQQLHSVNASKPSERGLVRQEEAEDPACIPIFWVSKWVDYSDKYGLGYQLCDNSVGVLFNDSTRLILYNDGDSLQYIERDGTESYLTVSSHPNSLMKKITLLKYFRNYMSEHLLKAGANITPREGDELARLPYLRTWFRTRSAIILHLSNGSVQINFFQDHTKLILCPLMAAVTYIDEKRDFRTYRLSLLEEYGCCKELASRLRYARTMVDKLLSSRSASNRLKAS
NUAK1 (human), sequence (O60285 whole entry, looked up): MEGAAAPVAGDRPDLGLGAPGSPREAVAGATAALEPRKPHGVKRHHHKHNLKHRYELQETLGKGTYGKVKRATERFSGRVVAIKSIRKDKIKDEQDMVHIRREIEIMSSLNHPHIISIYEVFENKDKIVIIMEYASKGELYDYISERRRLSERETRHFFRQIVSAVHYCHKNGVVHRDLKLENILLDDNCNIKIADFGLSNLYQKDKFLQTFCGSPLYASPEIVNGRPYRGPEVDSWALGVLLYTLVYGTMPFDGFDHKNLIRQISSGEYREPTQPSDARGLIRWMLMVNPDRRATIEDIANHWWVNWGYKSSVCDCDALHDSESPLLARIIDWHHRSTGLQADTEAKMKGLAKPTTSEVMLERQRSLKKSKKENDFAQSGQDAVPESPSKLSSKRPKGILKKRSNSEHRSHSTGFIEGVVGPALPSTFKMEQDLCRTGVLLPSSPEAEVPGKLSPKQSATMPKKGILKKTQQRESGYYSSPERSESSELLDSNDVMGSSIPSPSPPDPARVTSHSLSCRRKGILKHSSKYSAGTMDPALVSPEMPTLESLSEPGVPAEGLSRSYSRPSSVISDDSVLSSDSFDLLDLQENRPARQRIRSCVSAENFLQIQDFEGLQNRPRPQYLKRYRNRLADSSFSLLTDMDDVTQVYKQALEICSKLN
CSNK2A1 (human), sequence (P68400 whole entry, looked up): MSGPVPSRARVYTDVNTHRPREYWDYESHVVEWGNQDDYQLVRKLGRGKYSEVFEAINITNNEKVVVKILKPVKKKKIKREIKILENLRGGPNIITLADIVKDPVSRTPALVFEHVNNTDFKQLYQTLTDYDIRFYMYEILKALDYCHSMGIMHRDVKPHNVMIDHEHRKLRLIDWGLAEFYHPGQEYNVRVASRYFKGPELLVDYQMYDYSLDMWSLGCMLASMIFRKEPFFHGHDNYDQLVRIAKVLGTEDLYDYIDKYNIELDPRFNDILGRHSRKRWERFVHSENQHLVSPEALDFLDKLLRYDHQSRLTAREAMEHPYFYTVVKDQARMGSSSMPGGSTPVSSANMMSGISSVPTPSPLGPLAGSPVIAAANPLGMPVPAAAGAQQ
AURKA (human), sequence (O14965 whole entry, looked up): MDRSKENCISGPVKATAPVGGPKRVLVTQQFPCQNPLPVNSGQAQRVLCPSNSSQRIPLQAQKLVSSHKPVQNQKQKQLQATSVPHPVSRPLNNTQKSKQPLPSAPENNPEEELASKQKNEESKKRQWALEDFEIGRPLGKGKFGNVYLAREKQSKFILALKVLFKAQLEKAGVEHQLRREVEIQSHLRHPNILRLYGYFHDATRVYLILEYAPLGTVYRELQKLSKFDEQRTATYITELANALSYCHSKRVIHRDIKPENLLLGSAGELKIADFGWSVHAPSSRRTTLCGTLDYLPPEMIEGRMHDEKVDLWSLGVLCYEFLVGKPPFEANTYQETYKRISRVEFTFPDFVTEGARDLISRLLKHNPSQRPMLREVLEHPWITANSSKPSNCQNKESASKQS
PTK2 (human), sequence (Q05397 whole entry, looked up): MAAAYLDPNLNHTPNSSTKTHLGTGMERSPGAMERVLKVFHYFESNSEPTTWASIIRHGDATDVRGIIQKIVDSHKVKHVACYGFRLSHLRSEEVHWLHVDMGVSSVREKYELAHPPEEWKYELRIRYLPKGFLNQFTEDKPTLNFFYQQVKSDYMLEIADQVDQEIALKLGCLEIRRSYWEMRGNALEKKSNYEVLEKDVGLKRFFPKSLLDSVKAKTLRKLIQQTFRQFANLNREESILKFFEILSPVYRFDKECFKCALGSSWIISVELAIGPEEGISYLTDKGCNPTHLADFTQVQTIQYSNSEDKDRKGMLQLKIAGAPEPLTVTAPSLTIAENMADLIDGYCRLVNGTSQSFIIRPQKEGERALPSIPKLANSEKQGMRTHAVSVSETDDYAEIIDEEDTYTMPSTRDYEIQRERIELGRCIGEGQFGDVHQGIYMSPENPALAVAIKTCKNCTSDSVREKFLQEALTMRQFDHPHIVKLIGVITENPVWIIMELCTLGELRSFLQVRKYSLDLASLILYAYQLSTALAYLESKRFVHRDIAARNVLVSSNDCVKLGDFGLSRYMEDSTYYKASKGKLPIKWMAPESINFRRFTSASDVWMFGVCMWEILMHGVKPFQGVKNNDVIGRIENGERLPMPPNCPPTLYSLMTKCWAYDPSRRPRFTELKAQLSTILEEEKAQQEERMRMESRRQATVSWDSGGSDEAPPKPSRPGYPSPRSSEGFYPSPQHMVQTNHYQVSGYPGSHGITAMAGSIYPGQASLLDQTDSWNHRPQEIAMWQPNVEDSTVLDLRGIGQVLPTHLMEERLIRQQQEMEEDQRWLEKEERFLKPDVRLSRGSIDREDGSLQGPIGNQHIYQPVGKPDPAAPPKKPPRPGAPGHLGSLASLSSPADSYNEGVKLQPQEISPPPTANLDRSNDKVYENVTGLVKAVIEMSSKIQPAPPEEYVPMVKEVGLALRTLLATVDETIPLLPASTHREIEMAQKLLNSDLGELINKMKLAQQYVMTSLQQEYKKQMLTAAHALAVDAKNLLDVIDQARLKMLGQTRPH
CDK4 CCND1 (human), sequence (P11802 whole entry, looked up): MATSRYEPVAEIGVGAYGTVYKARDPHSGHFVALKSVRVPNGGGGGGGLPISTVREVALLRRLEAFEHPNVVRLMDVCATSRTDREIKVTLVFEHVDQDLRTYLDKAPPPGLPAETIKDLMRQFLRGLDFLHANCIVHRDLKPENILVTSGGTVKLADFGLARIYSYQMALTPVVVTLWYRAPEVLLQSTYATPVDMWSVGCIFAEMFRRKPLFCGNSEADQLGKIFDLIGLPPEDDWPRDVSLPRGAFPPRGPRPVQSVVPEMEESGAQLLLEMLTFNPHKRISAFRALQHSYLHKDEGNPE
CDK4 CCND1 (human), sequence (P24385 whole entry, looked up): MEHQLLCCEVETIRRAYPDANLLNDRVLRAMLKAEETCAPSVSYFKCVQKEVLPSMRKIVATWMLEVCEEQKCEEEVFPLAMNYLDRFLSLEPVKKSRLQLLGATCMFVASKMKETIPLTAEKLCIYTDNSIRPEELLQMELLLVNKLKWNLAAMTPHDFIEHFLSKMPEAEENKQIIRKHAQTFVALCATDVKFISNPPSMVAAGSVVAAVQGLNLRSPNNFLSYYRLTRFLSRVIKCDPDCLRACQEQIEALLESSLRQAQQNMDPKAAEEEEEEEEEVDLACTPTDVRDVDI

Consider `Oc1ccc(CSc2nc(-c3ccncc3)c(-c3ccc(F)cc3)[nH]2)cc1`, for which the residual activity (usually the signal under treatment as a percentage of the control signal) at CSNK2A1 (human) was found to be 107%; at KDR (human), 26%; at TEK (human), 33%; at PDGFRB (human) it was 65%; at PLK4 (human), 51%; at AKT1 (human), 130%. Moreover, the residual activity stood at 91% at AXL (human); 48% on MAPK10 (human); 4% on MAPK14 (human); 34% at SRC (human); 99% on PTK2 (human); 126% at NUAK1 (human). Besides, the residual activity at MAP3K8 (human) was 96%; at ERBB2 (human), 22%; at IGF1R (human), 104%; at PLK1 (human) it was 120%; at AURKA (human), 64%; on CDK2 CCNA2 (human), 117%. The residual activity came to 78% at AURKB (human); 78% on MET (human); 103% on CDK4 CCND1 (human); 5% in assay [1]; 42% at EPHB4 (human); 20% at EGFR (human).
